Test results as given in BigSolDB 2.1.

COC(=O)C(C)(C)N=NC(C)(C)C(=O)OC
solubility (mole fraction) (in THF, 253.85 K): 0.13 | solubility (mole fraction) (in THF, 258.55 K): 0.156 | solubility (mole fraction) (in THF, 260.95 K): 0.175 | solubility (mole fraction) (in THF, 262.85 K): 0.194 | solubility (mole fraction) (in THF, 265.15 K): 0.224 | solubility (mole fraction) (in THF, 268.85 K): 0.263 | solubility (mole fraction) (in THF, 273.65 K): 0.326 | solubility (mole fraction) (in THF, 275.95 K): 0.364 | solubility (mole fraction) (in THF, 278.45 K): 0.404 | solubility (mole fraction) (in THF, 280.65 K): 0.443 | solubility (mole fraction) (in THF, 283.15 K): 0.497 | solubility (mole fraction) (in THF, 285.65 K): 0.561 | solubility (mole fraction) (in THF, 288.05 K): 0.614 | solubility (mole fraction) (in THF, 290.55 K): 0.674 | solubility (mole fraction) (in THF, 293.15 K): 0.75 | solubility (mole fraction) (in acetone, 252.75 K): 0.0841 | solubility (mole fraction) (in acetone, 254.45 K): 0.0922 | solubility (mole fraction) (in acetone, 257.95 K): 0.112 | solubility (mole fraction) (in acetone, 261.25 K): 0.136 | solubility (mole fraction) (in acetone, 264.95 K): 0.171 | solubility (mole fraction) (in acetone, 267.65 K): 0.201 | solubility (mole fraction) (in acetone, 273.55 K): 0.276 | solubility (mole fraction) (in acetone, 275.85 K): 0.308 | solubility (mole fraction) (in acetone, 278.25 K): 0.352 | solubility (mole fraction) (in acetone, 280.55 K): 0.395 | solubility (mole fraction) (in acetone, 283.05 K): 0.454 | solubility (mole fraction) (in acetone, 285.65 K): 0.524 | solubility (mole fraction) (in acetone, 287.95 K): 0.591 | solubility (mole fraction) (in acetone, 290.45 K): 0.657 | solubility (mole fraction) (in acetone, 293.15 K): 0.734 | solubility (mole fraction) (in acetonitrile, 251.75 K): 0.0545 | solubility (mole fraction) (in acetonitrile, 255.15 K): 0.0705 | solubility (mole fraction) (in acetonitrile, 258.65 K): 0.091 | solubility (mole fraction) (in acetonitrile, 262.45 K): 0.113 | solubility (mole fraction) (in acetonitrile, 265.15 K): 0.137 | solubility (mole fraction) (in acetonitrile, 269.15 K): 0.18 | solubility (mole fraction) (in acetonitrile, 273.55 K): 0.238 | solubility (mole fraction) (in acetonitrile, 275.75 K): 0.278 | solubility (mole fraction) (in acetonitrile, 278.15 K): 0.323 | solubility (mole fraction) (in acetonitrile, 280.65 K): 0.369 | solubility (mole fraction) (in acetonitrile, 283.25 K): 0.432 | solubility (mole fraction) (in acetonitrile, 285.55 K): 0.494 | solubility (mole fraction) (in acetonitrile, 287.95 K): 0.557 | solubility (mole fraction) (in acetonitrile, 290.85 K): 0.638 | solubility (mole fraction) (in acetonitrile, 293.15 K): 0.702 | solubility (mole fraction) (in cyclohexane, 281.15 K): 0.147 | solubility (mole fraction) (in cyclohexane, 283.55 K): 0.233 | solubility (mole fraction) (in cyclohexane, 286.05 K): 0.362 | solubility (mole fraction) (in cyclohexane, 288.45 K): 0.471 | solubility (mole fraction) (in cyclohexane, 291.05 K): 0.601 | solubility (mole fraction) (in cyclohexane, 293.15 K): 0.677 | solubility (mole fraction) (in dichloromethane, 252.95 K): 0.268 | solubility (mole fraction) (in dichloromethane, 257.05 K): 0.281 | solubility (mole fraction) (in dichloromethane, 260.55 K): 0.296 | solubility (mole fraction) (in dichloromethane, 264.45 K): 0.321 | solubility (mole fraction) (in dichloromethane, 268.05 K): 0.352 | solubility (mole fraction) (in dichloromethane, 271.05 K): 0.385 | solubility (mole fraction) (in dichloromethane, 274.95 K): 0.413 | solubility (mole fraction) (in dichloromethane, 276.65 K): 0.451 | solubility (mole fraction) (in dichloromethane, 278.85 K): 0.493 | solubility (mole fraction) (in dichloromethane, 281.15 K): 0.513 | solubility (mole fraction) (in dichloromethane, 283.55 K): 0.552 | solubility (mole fraction) (in dichloromethane, 286.15 K): 0.592 | solubility (mole fraction) (in dichloromethane, 288.45 K): 0.627 | solubility (mole fraction) (in dichloromethane, 291.05 K): 0.67 | solubility (mole fraction) (in dichloromethane, 293.15 K): 0.73 | solubility (mole fraction) (in diethyl ether, 254.25 K): 0.0921 | solubility (mole fraction) (in diethyl ether, 257.95 K): 0.104 | solubility (mole fraction) (in diethyl ether, 260.55 K): 0.119 | solubility (mole fraction) (in diethyl ether, 262.45 K): 0.136 | solubility (mole fraction) (in diethyl ether, 266.75 K): 0.177 | solubility (mole fraction) (in diethyl ether, 268.15 K): 0.19 | solubility (mole fraction) (in diethyl ether, 273.55 K): 0.268 | solubility (mole fraction) (in diethyl ether, 275.65 K): 0.298 | solubility (mole fraction) (in diethyl ether, 278.05 K): 0.361 | solubility (mole fraction) (in diethyl ether, 280.55 K): 0.4 | solubility (mole fraction) (in diethyl ether, 282.85 K): 0.46 | solubility (mole fraction) (in diethyl ether, 285.55 K): 0.543 | solubility (mole fraction) (in diethyl ether, 287.95 K): 0.599 | solubility (mole fraction) (in diethyl ether, 290.45 K): 0.667 | solubility (mole fraction) (in diethyl ether, 293.15 K): 0.743 | solubility (mole fraction) (in ethanol, 252.85 K): 0.0094 | solubility (mole fraction) (in ethanol, 256.15 K): 0.011 | solubility (mole fraction) (in ethanol, 258.65 K): 0.0133 | solubility (mole fraction) (in ethanol, 261.85 K): 0.0165 | solubility (mole fraction) (in ethanol, 265.85 K): 0.0255 | solubility (mole fraction) (in ethanol, 268.55 K): 0.0344 | solubility (mole fraction) (in ethanol, 273.25 K): 0.0568 | solubility (mole fraction) (in ethanol, 275.85 K): 0.0726 | solubility (mole fraction) (in ethanol, 278.15 K): 0.094 | solubility (mole fraction) (in ethanol, 280.65 K): 0.123 | solubility (mole fraction) (in ethanol, 283.15 K): 0.17 | solubility (mole fraction) (in ethanol, 285.65 K): 0.238 | solubility (mole fraction) (in ethanol, 288.05 K): 0.329 | solubility (mole fraction) (in ethanol, 291.05 K): 0.481 | solubility (mole fraction) (in ethanol, 293.25 K): 0.625 | solubility (mole fraction) (in ethyl acetate, 252.15 K): 0.107 | solubility (mole fraction) (in ethyl acetate, 255.15 K): 0.114 | solubility (mole fraction) (in ethyl acetate, 257.85 K): 0.134 | solubility (mole fraction) (in ethyl acetate, 260.15 K): 0.146 | solubility (mole fraction) (in ethyl acetate, 263.65 K): 0.185 | solubility (mole fraction) (in ethyl acetate, 269.25 K): 0.246 | solubility (mole fraction) (in ethyl acetate, 273.65 K): 0.308 | solubility (mole fraction) (in ethyl acetate, 276.15 K): 0.342 | solubility (mole fraction) (in ethyl acetate, 278.45 K): 0.389 | solubility (mole fraction) (in ethyl acetate, 280.85 K): 0.433 | solubility (mole fraction) (in ethyl acetate, 283.25 K): 0.492
